System: 967376-340-R-J2-PDC multicell spheroid viability
Assay: Anticancer human tumor 967376-340-R-J2-PDC patient-derived colon adenocarcinoma cell line growth inhibition [PI3K]
Conditions: for IC50: curve of first compound; for viability, T/C: stronger effect = lower value
In short: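 Spheroid viability read-out. Co-cultures contained the tumor line plus HUVEC and human MSCs. Each agent was paired with a PI3K inhibitor (inavolisib, alpelisib, duvelisib, copanlisib) across half-log dilutions starting at clinical Cmax, or at 10 microM when Cmax was unknown.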

[1] = second compound 0.0316 µM, first compound 0.0316 µM
[2] = second compound 0.0316 µM, first compound 0.1 µM
[3] = second compound 0.0316 µM, first compound 0.316 µM
[4] = second compound 0.0316 µM, first compound 1 µM
[5] = second compound 0.0316 µM, first compound 3.16 µM
[6] = second compound 0.0316 µM, first compound 10 µM
[7] = second compound 0.1 µM, first compound 0.0316 µM
[8] = second compound 0.1 µM, first compound 0.1 µM
[9] = second compound 0.1 µM, first compound 0.316 µM
[10] = second compound 0.1 µM, first compound 1 µM
[11] = second compound 0.1 µM, first compound 3.16 µM
[12] = second compound 0.1 µM, first compound 10 µM
[13] = second compound 0.316 µM, first compound 0.0316 µM
[14] = second compound 0.316 µM, first compound 0.1 µM
[15] = second compound 0.316 µM, first compound 0.316 µM
[16] = second compound 0.316 µM, first compound 1 µM
[17] = second compound 0.316 µM, first compound 3.16 µM
[18] = second compound 0.316 µM, first compound 10 µM
[19] = second compound 1 µM, first compound 0.0316 µM
[20] = second compound 1 µM, first compound 0.1 µM
[21] = second compound 1 µM, first compound 0.316 µM
[22] = second compound 1 µM, first compound 1 µM
[23] = second compound 1 µM, first compound 3.16 µM
[24] = second compound 1 µM, first compound 10 µM
[25] = second compound 3.16 µM, first compound 0.0316 µM
[26] = second compound 3.16 µM, first compound 0.1 µM
[27] = second compound 3.16 µM, first compound 0.316 µM
[28] = second compound 3.16 µM, first compound 1 µM
[29] = second compound 3.16 µM, first compound 3.16 µM
[30] = second compound 3.16 µM, first compound 10 µM
[31] = second compound 10 µM, first compound 0.0316 µM
[32] = second compound 10 µM, first compound 0.1 µM
[33] = second compound 10 µM, first compound 0.316 µM
[34] = second compound 10 µM, first compound 1 µM
[35] = second compound 10 µM, first compound 3.16 µM
[36] = second compound 10 µM, first compound 10 µM
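Note: spheroids exposed to agents for 7 days before read-out.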
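Throughout, for viability, T/C: luminescence used as surrogate of cell viability.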

SMILES: CC(Cn1ccc(-c2ccc(C#N)c(Cl)c2)n1)NC(=O)c1cc(C(C)O)[nH]n1 (centres undefined) + Cc1nc(NC(=O)N2CCCC2C(N)=O)sc1-c1ccnc(C(C)(C)C(F)(F)F)c1
- IC50 (second compound 0.0316 µM): > 10 µM
- IC50 (second compound 0.1 µM): > 10 µM
- IC50 (second compound 0.316 µM): > 10 µM
- IC50 (second compound 1 µM): > 10 µM
- IC50 (second compound 3.16 µM): > 10 µM
- IC50 (second compound 10 µM): > 10 µM
- viability, T/C [1]: 90.6%
- viability, T/C [2]: 118%
- viability, T/C [3]: 104%
- viability, T/C [4]: 93.9%
- viability, T/C [5]: 109%
- viability, T/C [6]: 102%
- viability, T/C [7]: 95.1%
- viability, T/C [8]: 103%
- viability, T/C [9]: 91.6%
- viability, T/C [10]: 100%
- viability, T/C [11]: 92.9%
- viability, T/C [12]: 119%
- viability, T/C [13]: 69.3%
- viability, T/C [14]: 94.3%
- viability, T/C [15]: 95%
- viability, T/C [16]: 92.7%
- viability, T/C [17]: 102%
- viability, T/C [18]: 73.8%
- viability, T/C [19]: 58%
- viability, T/C [20]: 66.8%
- viability, T/C [21]: 75.2%
- viability, T/C [22]: 72.5%
- viability, T/C [23]: 83.5%
- viability, T/C [24]: 65.7%
- viability, T/C [25]: 54.4%
- viability, T/C [26]: 62.3%
- viability, T/C [27]: 61.5%
- viability, T/C [28]: 52.5%
- viability, T/C [29]: 62.9%
- viability, T/C [30]: 73.7%
- viability, T/C [31]: 57.3%
- viability, T/C [32]: 58.4%
- viability, T/C [33]: 43.3%
- viability, T/C [34]: 60.9%
- viability, T/C [35]: 72.1%
- viability, T/C [36]: 48.2%

SMILES: CC1(C)CCC(Nc2ncc(C(F)(F)F)c(-c3c[nH]c4c(P(C)(C)=O)c(C#N)ccc34)n2)CN1 (centres undefined) + Cc1nc(NC(=O)N2CCCC2C(N)=O)sc1-c1ccnc(C(C)(C)C(F)(F)F)c1
- IC50 (second compound 0.0316 µM): 3.81 µM
- IC50 (second compound 0.1 µM): 6.06 µM
- IC50 (second compound 0.316 µM): 3.95 µM
- IC50 (second compound 1 µM): 0.629 µM
- IC50 (second compound 3.16 µM): 0.386 µM
- IC50 (second compound 10 µM): 0.0432 µM
- viability, T/C [1]: 82.8%
- viability, T/C [2]: 72.5%
- viability, T/C [3]: 55.6%
- viability, T/C [4]: 54.7%
- viability, T/C [5]: 61.5%
- viability, T/C [6]: 40.8%
- viability, T/C [7]: 78.4%
- viability, T/C [8]: 68.8%
- viability, T/C [9]: 69.7%
- viability, T/C [10]: 66.8%
- viability, T/C [11]: 63%
- viability, T/C [12]: 41.2%
- viability, T/C [13]: 67.5%
- viability, T/C [14]: 73.3%
- viability, T/C [15]: 48.5%
- viability, T/C [16]: 58.5%
- viability, T/C [17]: 60.4%
- viability, T/C [18]: 39.2%
- viability, T/C [19]: 51.6%
- viability, T/C [20]: 53.8%
- viability, T/C [21]: 72.8%
- viability, T/C [22]: 43.6%
- viability, T/C [23]: 45.5%
- viability, T/C [24]: 34.1%
- viability, T/C [25]: 58.9%
- viability, T/C [26]: 51.2%
- viability, T/C [27]: 49.4%
- viability, T/C [28]: 47.3%
- viability, T/C [29]: 41.4%
- viability, T/C [30]: 30.7%
- viability, T/C [31]: 54.8%
- viability, T/C [32]: 39.1%
- viability, T/C [33]: 39.6%
- viability, T/C [34]: 34.9%
- viability, T/C [35]: 31.4%
- viability, T/C [36]: 23.3%
